Data set [1] concerns regulatory T cells (Tregs). The data set can be described thus: Topical MC903 on ear skin of wildtype mice, fraction of Tregs in skin, blood and lymphoid organs. The data set is classed as in vivo. The conditions noted are these: 2 nmol. An excerpt: FIGS. 1A-1B comprise graphs relating to topical treatment of B6 mice with EtOH or MC903 (2 nmol) on one ear. FIG. 1A, comprising FACS data and a graph, illustrates the percentage of regulatory T cells (Tregs) in the ear skin homogenate of B6 mice. “Treated” refers to topical administration of MC903 to the ear skin of the B6 mice. “Untreated” refers to topical administration of EtOH to the ear skin of the B6 mice. FIG. 1B comprises graphs illustrating the percentage of Tregs out of CD4+ T cells in the blood, spleen, and peripheral lymph nodes of B6 mice topically treated with MC903. FIG. 2 is a graph illustrating the percentage of Tregs out of CD4+ T cells in the spleen after B6 mice were treated topically or injected intraperitoneally with EtOH or MC903 (2 nmol). Wildtype (WT) mice were treated with vehicle (100% EtOH) or MC903 once a day on the skin of one ear for 7 days. On Day 8, the ear skin of both ears, blood, and secondary lymphoid organs (lymph nodes and spleen) were harvested.

In data set [2] the test system is thymic stromal lymphopoietin (TSLP). The data set can be described thus: Circulating (serum) TSLP level over time after topical MC903. The data set is classed as in vivo, mice. Conditions: topical MC903, treatment stopped on Day 7; fell abruptly by Day 9. An excerpt:
FIG. 3A-3C comprise graphs illustrating data derived from topical treatment of B6 mice with EtOH or MC903 (2 nmol) until […]. Mice were taken at different time points post treatment initiation as indicated. FIG. 3A is a graph illustrating the percentage of Tregs out of CD4+ T cells in the spleen and blood of B6 mice over 18 days. FIG. 3B illustrates the absolute numbers of Tregs in the spleen of B6 mice over 18 days. FIG. 3C illustrates the serum thymic stromal lymphopoietin (TSLP) level change over time in B6 mice over 18 days.
Next, the kinetics of the systemic increase in Treg levels was investigated after topical MC903 treatment (treatment stopped on Day 7). The absolute number and the fraction of Tregs increased to a peak between days 6 and 9 and gradually declined thereafter in the spleen and the blood of MC903-treated mice (FIGS. 3A-3B). Circulating TSLP levels peaked at Day 6 and fell abruptly by Day 9 (FIG. 3C).

Another data set deals with ApoE KO mice. Briefly: ApoE KO mouse model of atherosclerosis, topical MC903. The data set is classed as in vivo. Conditions: high fat Western diet, topical 3 times/week every other week for 10 weeks. An excerpt: FIGS. 6A-6B comprise graphs illustrating data derived from topical treatment of ApoE KO mice fed a high-fat Western diet with EtOH or MC903 (2 nmol) 3 times/week every other week for 10 weeks. FIG. 6A illustrates the total cholesterol levels at baseline, at week 3, and week 10 of ApoE KO mice. FIG. 6B illustrates the atherosclerotic plaques difference among ApoE KO mice. The full length of the aorta was removed from the mice at week 10 and stained with Oil Red O dye to detect atherosclerotic plaques. The area occupied by the plaque was calculated and divided by the total area of the aorta (% lesion area). N=7 mice/group. * indicates significance of p<0.01 by T-test.
The effects of topical application of MC903 on atherosclerotic plaques were investigated. Atherosclerosis is a disease condition where lipid deposition occurs in arterial walls, leading to obstruction of blood flow. Ultimately, these lesions cause morbidity and mortality by affecting blood flow to the heart (myocardial infarction; angina) or the brain (stroke). Although these lesions are formed by cholesterol deposits in patients who have hypercholesterolemia, immune activation is necessary for plaque progression, and Tregs are implicated in dampening the progression of atherosclerosis. It is contemplated that topical MC903 treatment can attenuate plaque progression in atherosclerosis. […]

The next data set concerns B6 mice. Briefly: K/BxN serum-induced arthritis mouse model, topical MC903. The data set is classed as in vivo. As for the experimental part: FIGS. 8A-8B comprise graphs illustrating data derived from injecting B6 mice with 75 μl of serum from K/B×N mice on Days 0 and 2, and topically treating the mice with MC903 starting at Day 0. FIG. 8A illustrates the percentage of Tregs in blood of B6 mice determined on Day 8 post MC903 treatment in comparison with EtOH treatment. FIG. 8B illustrates the change of ankle thickness over time after B6 mice were injected with 75 μl of serum from K/B×N mice on Days 0 and 2, and were topically treated with MC903 starting at Day 0. Ankle thickness was measured twice a week and plotted as % maximal ankle thickness of each mouse. N=3 mice/group. Whether MC903 treatment can attenuate joint swelling in a mouse model of rheumatoid arthritis was tested in the following experiment. In this model, serum from arthritic mice (K/B×N) is injected into normal wildtype mice. […] Mice were treated topically with MC903 or EtOH (daily) and injected with arthritogenic serum (on Days 0 and 2).

The next data set concerns Tregs. The data set can be described thus: Treg % in blood and spleen after topical vitamin D3 analogs. The data set is classed as in vivo, mice. The conditions noted are these: topical MC903, summary statement of Example 6. An excerpt:
FIGS. 10A-10B comprise bar graphs illustrating data derived from topically treating mice with EtOH or EB1089 (0.04 nmol/ear) for 5 days and bleeding them on Day 7. Treg % from (FIG. 10A) blood and (FIG. 10B) spleen are illustrated. N=3 mice/group. *p<0.01 by Student t-test.
(§1) VDR stimulation of keratinocytes led to TSLP production, which in certain embodiments caused increase in Treg numbers. The effects of two vitamin D3 analogs (22-Oxacalcitriol, also known as 22-OXA, and EB1089) on TSLP production and Treg numbers were evaluated. Similarly to MC903, 22-OXA and EB1089 were applied to the ear skin bilaterally at a dose of 2 nmol/ear dissolved in ethanol. After 5 days of treatment, the mice were bled and serum TSLP levels were measured. […] To avoid the toxic effect, the dose of 22-OXA and EB1089 was lowered to a point where morbidity and mortality of mice was not observed (0.4 nmol/ear for 22-OXA; 0.04 nmol/ear for EB1089). At this dose, no increase in TSLP level was detected in 22-OXA-treated mice (FIG. 9B).

A short description of data set [3]: Toxicity (morbidity and mortality) of topical vitamin D3 analogs in mice. The data set is classed as in vivo. Conditions: mouse, in vivo. As for the experimental part: as §1
A further data set has as its system C57BL6 mice. The data set can be described thus: High fat diet (HFD) type II diabetes mouse model, topical MC903. The data set is classed as in vivo. Conditions: topical three times a week every other week, vs ethanol. The procedure:
FIG. 13 comprises a graph illustrating the finding that topical administration of MC903 improves overnight fasting glucose levels in mice fed with 12 weeks of high fat diet (HFD).
Topical administration of MC903 was evaluated in a model of high fat diet (HFD) type II diabetes mice. Male C57BL6 mice, which were 8 weeks at the onset of the study, were used. The mice were fed a high fat diet (45 kcal % of fat; research diet No. D12451, OpenSource Diets) for 20 weeks. During this period, the mice were topically administered ethanol or MC903 three times a week (Monday, Wednesday and Friday), every other week, for the duration of the experiment.

`C=C1/C(=C\C=C2/CCC[C@]3(C)[C@@H]([C@H](C)/C=C/[C@@H](O)C4CC4)CC[C@@H]23)C[C@@H](O)C[C@@H]1O` [MC903, 26,27-cyclo-22-ene-1α,24S-dihydroxyvitamin D3]: in data set [1] (intraperitoneal injection), the “effect on Tregs (spleen) when injected intraperitoneally” value is on record as “No effect”. In data set [1] (topical once a day on one ear for 7 days, Day 8, compared to EtOH-treated side), the “increase in the fraction of Tregs (% Foxp3+ of CD4+ T cells) in treated ear skin” value is “about 2 fold”. In addition, in data set [2], the “time of peak of circulating TSLP levels” value is 6 days. In the data set on ApoE KO mice, the “decrease of % of area occupied by the plaques in the aorta” value was above 50% and the total cholesterol levels result is “did not alter”. Also, the “joint swelling and erythema after Day 7” value in the data set with B6 mice (concomitant with the elevated Treg percentages) was “quick reduction”. In the data set with B6 mice (mice injected with arthritogenic serum, topical daily), the “circulating Treg levels” value was “increased”. For the same compound, the “systemic Treg numbers” value in the data set with Tregs is “increase systemic Treg numbers”. Besides, the systemic toxicity entry in data set [3] was “without any apparent systemic toxicity”. Besides, the “overnight fasting glucose levels” value in the data set with C57BL6 mice is on record as “improved overnight fasting glucose levels”.

The record behind these values is patent US11752159B2, “Compositions and methods for suppressing or reducing systemic immune response in a subject” (THE TRUSTEES OF THE UNIVERSITY OF PENNSYLVANIA, priority 2015, dated 2023).
